Source: patent EP0338372A2, “Solubilized pro-drugs” (AMERICAN CYANAMID COMPANY, priority 1988, dated 1989)
Where two headings read alike, the source gives them in different places. Blank lines part the entries; values can stand above or below the compound they belong to.

Tests used:
melanotic melanoma B16 = test: Melanotic Melanoma B16 test; assay type: in vivo, BDF1 mice
[1] = test system: lymphocytic leukemia P388; test: Lymphocytic leukemia P388 test; assay type: in vivo, BDF1 mice
[2] = pH 7.5
L1210 leukemia cells = test: Lymphocytic Leukemia L1210 test; assay type: in vivo, BDF1 mice
solubility = settings: 0.1 M phosphate buffer, pH 7.5
[3] = Dose 25 mg/kg intraperitoneally on days 1, 5 and 9
[4] = Dose 50 mg/kg intraperitoneally on days 1, 5 and 9
[5] = Dose 100 mg/kg intraperitoneally on days 1, 5 and 9
[6] = Dose 200 mg/kg intraperitoneally on days 1, 5 and 9
[7] = Dose 12.5 mg/kg intraperitoneally on days 1, 5 and 9
[8] = Dose 0.78 mg/kg intraperitoneally on days 1, 5 and 9
[9] = Dose 1.56 mg/kg intraperitoneally on days 1, 5 and 9
[10] = Dose 3.12 mg/kg intraperitoneally on days 1, 5 and 9
[11] = Dose 6.25 mg/kg intraperitoneally on days 1, 5 and 9
[12] = Dose 3.25 mg/kg intraperitoneally on days 1, 5 and 9
[13] = Dose 0.19 mg/kg intraperitoneally on days 1, 5 and 9
[14] = Dose 0.39 mg/kg intraperitoneally on days 1, 5 and 9

Compound: CCCC(=O)N1CCN=C1NN=Cc1c2ccccc2c(C=NNC2=NCCN2C(=O)CCC)c2ccccc12 [2,2-(9,10-Anthracenediylbis(methylidyne-1-hydrazinyl-2-ylidene)]bis4,5-dihydro-1-(1-oxobutyl)-1H-imidazole]]
Median Survival (melanotic melanoma B16; [3]): 26 days
T/C x 100 % (melanotic melanoma B16; [3]): 118%
Median Survival (melanotic melanoma B16; [4]): 24.5 days
T/C x 100 % (melanotic melanoma B16; [4]): 111%
Median Survival (melanotic melanoma B16; [5]): 28.5 days
T/C x 100 % (melanotic melanoma B16; [5]): 130%
Median Survival (melanotic melanoma B16; [6]): 27.5 days
T/C x 100 % (melanotic melanoma B16; [6]): 125%
Median Survival [1, 7]: 12.5 days
T/C x 100 % [1, 7]: 125%
Median Survival [1, 3]: 12.5 days
T/C x 100 % [1, 3]: 125%
Median Survival [1, 4]: 14 days
T/C x 100 % [1, 4]: 140%
Median Survival [1, 5]: 14.5 days
T/C x 100 % [1, 5]: 145%
Median Survival [1, 6]: 15.5 days
T/C x 100 % [1, 6]: 155%

Compound: O=C(c1ccccc1)N1CCN=C1N(N=Cc1c2ccccc2c(C=NN(C(=O)c2ccccc2)C2=NCCN2C(=O)c2ccccc2)c2ccccc12)C(=O)c1ccccc1 [2,2-(9,14-Anthracenediyldimethylidyne)bis[1-(1-benzoyl-4,5-dihydro-1H-imidazol-2-yl)hydrazide] of Benzoic Acid]
Median Survival (melanotic melanoma B16; [7]): 29.5 days
T/C x 100 % (melanotic melanoma B16; [7]): 134%
Median Survival (melanotic melanoma B16; [3]): 32 days
T/C x 100 % (melanotic melanoma B16; [3]): 145%
Median Survival (melanotic melanoma B16; [4]): 40 days
T/C x 100 % (melanotic melanoma B16; [4]): 182%
Median Survival (melanotic melanoma B16; [5]): 57.5 days
T/C x 100 % (melanotic melanoma B16; [5]): 261%
Median Survival (melanotic melanoma B16; [6]): 50 days
T/C x 100 % (melanotic melanoma B16; [6]): 227%
Median Survival [1, 8]: 15.5 days
T/C x 100 % [1, 8]: 155%
Median Survival [1, 9]: 17.5 days
T/C x 100 % [1, 9]: 175%
Median Survival [1, 10]: 17 days
T/C x 100 % [1, 10]: 170%
Median Survival [1, 11]: 18 days
T/C x 100 % [1, 11]: 180%
Median Survival [1, 7]: 19 days
T/C x 100 % [1, 7]: 190%
Median Survival [1, 3]: 19.5 days
T/C x 100 % [1, 3]: 195%
Median Survival [1, 4]: 20 days
T/C x 100 % [1, 4]: 200%
Median Survival [1, 5]: 23 days
T/C x 100 % [1, 5]: 320%
Median Survival [1, 6]: 32 days
T/C x 100 % [1, 6]: 320%

Compound: CCOP(=O)(OCC)N1CCN(c2cc3c(cc2F)c(=O)c(C(=O)OCCOC)cn3C2CC2)CC1 [Example 49, 1-Cycfopropyl-7-[4-(diethoxyphosphinyl)-1-piperazinyl]-6-fluoro-1,4-dihydro-4-oxo-3-quinolinecarboxylic Acid, 2-Methoxyethyl Ester]
solubility [2]: easily soluble

Compound: O=C(O)CCC(=O)N1CCN=C1NN=Cc1c2ccccc2c(C=NNC2=NCCN2C(=O)CCC(=O)O)c2ccccc12 [2,2[9,10-Anthracenediylbis(methylidene-1-hydrazinyl-2-ylidene)]bis[4,5-dihydro-gamma-oxo-1H-imidazole-1-butanoic Acid]]
Median Survival (melanotic melanoma B16; [12]): >60 days
T/C x 100 % (melanotic melanoma B16; [12]): >273%
Median Survival (melanotic melanoma B16; [11]): >60 days
T/C x 100 % (melanotic melanoma B16; [11]): >273%
Median Survival (melanotic melanoma B16; [7]): 55.5 days
T/C x 100 % (melanotic melanoma B16; [7]): 252%
Median Survival [1, 13]: 15 days
T/C x 100 % [1, 13]: 150%
Median Survival [1, 14]: 15.5 days
T/C x 100 % [1, 14]: 155%
Median Survival [1, 8]: 17 days
T/C x 100 % [1, 8]: 170%
Median Survival [1, 9]: 17 days
T/C x 100 % [1, 9]: 170%
Median Survival [1, 10]: 19 days
T/C x 100 % [1, 10]: 190%
Median Survival [1, 11]: 19 days
T/C x 100 % [1, 11]: 190%
Median Survival [1, 7]: 23 days
T/C x 100 % [1, 7]: 230%
Median Survival (L1210 leukemia cells; [14]): 11.5 days
T/C x 100 % (L1210 leukemia cells; [14]): 135%
Median Survival (L1210 leukemia cells; [8]): 11.2 days
T/C x 100 % (L1210 leukemia cells; [8]): 132%
Median Survival (L1210 leukemia cells; [9]): 12 days
T/C x 100 % (L1210 leukemia cells; [9]): 141%
Median Survival (L1210 leukemia cells; [10]): 12.3 days
T/C x 100 % (L1210 leukemia cells; [10]): 145%
Median Survival (L1210 leukemia cells; [11]): 12.2 days
T/C x 100 % (L1210 leukemia cells; [11]): 144%
Median Survival (L1210 leukemia cells; [7]): 13.2 days
T/C x 100 % (L1210 leukemia cells; [7]): 155%

solubility (solubility): soluble
Compound: O=C(O)c1cn(C2CC2)c2cc(N3CCN(P(=O)(O)O)CC3)c(F)cc2c1=O [Example 47, t-Cyclopropyl-6-fluoro-1,4-dihydro-4-oxo-7-(4-phosphono-1-piperazinyl)-3-quinolinecarboxylic Acid]

Compound: CC(=O)N1CCN=C1N(N=Cc1c2ccccc2c(C=NN(C(C)=O)C2=NCCN2)c2ccccc12)C(C)=O [2-[[10-[[Acetyl(1-acetyl-4,5-dihydro-1H-imidazol-2-yl)hydrazono]methyl]-9-anthracenyl]methylene]-1-(4,5-dihydro-1H-imidazol-2-yl)hydrazide of Acetic Acid]
Median Survival (melanotic melanoma B16; [7]): 28 days
T/C x 100 % (melanotic melanoma B16; [7]): 127%
Median Survival (melanotic melanoma B16; [3]): 30 days
T/C x 100 % (melanotic melanoma B16; [3]): 136%
Median Survival (melanotic melanoma B16; [4]): 29.5 days
T/C x 100 % (melanotic melanoma B16; [4]): 134%
Median Survival (melanotic melanoma B16; [5]): 37 days
T/C x 100 % (melanotic melanoma B16; [5]): 168%
Median Survival (melanotic melanoma B16; [6]): 40 days
T/C x 100 % (melanotic melanoma B16; [6]): 182%
Median Survival [1, 11]: 12.5 days
T/C x 100 % [1, 11]: 125%
Median Survival [1, 7]: 13 days
T/C x 100 % [1, 7]: 130%
Median Survival [1, 3]: 15.5 days
T/C x 100 % [1, 3]: 155%
Median Survival [1, 4]: 16.5 days
T/C x 100 % [1, 4]: 165%
Median Survival [1, 5]: 17 days
T/C x 100 % [1, 5]: 170%
Median Survival [1, 6]: 17.5 days
T/C x 100 % [1, 6]: 175%

Compound: O=C(c1cccc([N+](=O)[O-])c1)N1CCN=C1N(N=Cc1c2ccccc2c(C=NN(C(=O)c2cccc([N+](=O)[O-])c2)C2=NCCN2C(=O)c2cccc([N+](=O)[O-])c2)c2ccccc12)C(=O)c1cccc([N+](=O)[O-])c1 [2,2'(9,10-Anthracenediyldimethylidyne)bis[1-[4,5-dihydro-1-(3-nitrobenzoyl)-1H-imidazol-2-yl]hydra-zide] of 3-nitrobenzoic acid]
Median Survival [1, 10]: 16 days
T/C x 100 % [1, 10]: 133%
Median Survival [1, 11]: 16 days
T/C x 100 % [1, 11]: 133%
Median Survival [1, 7]: 13.5 days
T/C x 100 % [1, 7]: 113%
Median Survival [1, 3]: 18 days
T/C x 100 % [1, 3]: 150%
Median Survival [1, 4]: 16.5 days
T/C x 100 % [1, 4]: 138%
Median Survival [1, 5]: 18 days
T/C x 100 % [1, 5]: 150%
Median Survival [1, 6]: 21.5 days
T/C x 100 % [1, 6]: 179%

Compound: [9,10-Anthracenedlylbis(methylidyne-1-hydrazinyl-2-ylidene (4,5-dihydro-1H-imidazol-2,1-diyl)]]-phosphonic Acid Hydroiodide
Median Survival ([1]; mouse, in vivo, ip, 0.4 mg/kg): 21 days
T/C x 100 % ([1]; mouse, in vivo, ip, 0.4 mg/kg): 191%
Median Survival ([1]; mouse, in vivo, ip, 0.8 mg/kg): 19 days
T/C x 100 % ([1]; mouse, in vivo, ip, 0.8 mg/kg): 173%
Median Survival ([1]; mouse, in vivo, ip, 1.6 mg/kg): 24.5 days
T/C x 100 % ([1]; mouse, in vivo, ip, 1.6 mg/kg): 223%
Median Survival ([1]; mouse, in vivo, ip, 3.2 mg/kg): 24 days
T/C x 100 % ([1]; mouse, in vivo, ip, 3.2 mg/kg): 218%
Median Survival ([1]; mouse, in vivo, ip, 6.3 mg/kg): 22 days
T/C x 100 % ([1]; mouse, in vivo, ip, 6.3 mg/kg): 200%
Median Survival ([1]; mouse, in vivo, ip, 12.5 mg/kg): 53.5 days
T/C x 100 % ([1]; mouse, in vivo, ip, 12.5 mg/kg): 486%
Median Survival ([1]; mouse, in vivo, ip, 25 mg/kg): >60 days
T/C x 100 % ([1]; mouse, in vivo, ip, 25 mg/kg): >545%

Compound: O=C(c1ccc2ccccc2c1)N1CCN=C1N(N=Cc1c2ccccc2c(C=NN(C(=O)c2ccc3ccccc3c2)C2=NCCN2C(=O)c2ccc3ccccc3c2)c2ccccc12)C(=O)c1ccc2ccccc2c1 [2,2'-(9,10-Anthracenediyldimethylidyne)bis[1-[4,5-dihydro-1-(2-naphthalenylcarbonyl)-1H-imidazol-2-yl]-hydrazide] of 2-naphthoic acid]
Median Survival [1, 5]: 12 days
T/C x 100 % [1, 5]: 104%

Compound: O=CN1CCN=C1NN=Cc1c2ccccc2c(C=NNC2=NCCN2C=O)c2ccccc12 [2,2-[9,10-Anthracenediylbis(methylidyne-1-hydrazinyl-2-ylidene)]bis[4,5-dihydro]-1H-imidazole-1-carboxaldehyde]
Median Survival [1, 4]: 12 days
T/C x 100 % [1, 4]: 120%
Median Survival [1, 6]: 12 days
T/C x 100 % [1, 6]: 120%
